Structures are written as SMILES.

The term EC50 denotes the midpoint of the concentration-response curve.

This assay has as its system Respiratory Syncytial Virus. The assay is described as follows: microbe, parasite or virus in culture. As to conditions: human respiratory syncytial virus, 168 h; antiviral activity; protection against cytopathology caused by RSV in HeLa cells, MTT read-out seven days after infection. It counts as cell-based. The procedure: The percent protection against cytopathology caused by viruses (antiviral activity or EC50) achieved by tested compounds and their cytotoxicity (CC50) are both calculated from dose-response curves.
Automated tetrazolium-based colorimetric assays were used for determination of EC50 and CC50 of test compounds. […] Subsequently, stock solutions (7.8× final test concentration) of compounds were added in 45 μl volumes to a series of triplicate wells so as to allow simultaneous evaluation of their effects on virus- and mock-infected cells. Five five-fold dilutions were made directly in the microtiter trays using a robot system. Untreated virus controls, and HeLa cell controls were included in each test. Approximately 100 TCID50 of Respiratory Syncytial Virus was added to two of the three rows in a volume of 50 μl. The same volume of medium was added to the third row to measure the cytotoxicity of the compounds at the same concentrations as those used to measure the antiviral activity. […] Finally, the absorbances were read in an eight-channel computer-controlled photometer (Multiskan MCC, Flow Laboratories) at two wavelengths (540 and 690 nm). The absorbance measured at 690 nm was automatically subtracted from the absorbance at 540 nm, so as to eliminate the effects of non-specific absorption.

`Cc1ccc(CCCO)c(NCc2ccc3nc(C(N)=O)n(Cc4nc(C)ccc4O)c3c2)c1` [d-10]: the EC50 is 631 nM.

The record behind these values is patent US7884215B2, “2-substituted benzimidazoles” (priority 2005, dated 2011).
